According to US9357924B2, “Composition, method, system and kit for optical electrophysiology” (The Research Foundation of State University of New York, priority 2006, dated 2016):
Several values for one entry are separate records, joined by “and”; a condition that tells them apart may be missing. Equal values may be shown once.

Experiments:
[1] = system: mouse heart cardiac tissue; test: Optical action potential recording in Langendorff-perfused mouse heart (Tyrode's solution); conditions: mean ± SD
Procedure: (§1) The dye testing experiments were performed on typical model animals: mice (n=6), rat (n=11), guinea pig (n=6), pig (n=13). All experimental protocols conformed to the Guide for the Care and Use of Laboratory Animals and were approved by the Committee for the Humane Use of Animal of the SUNY Upstate Medical University. Mice (C57BL/6, 20-25 g) were injected with ketamine (200 mg/kg IP), rats (Sprague Dawley, 300-400 g female) and guinea pigs were injected with heparin (550 U/100 g), and euthanized by sodium phentobarbital (1 ml/100 g for rats and 0.75 ml/100 g for guinea pigs). The heart was then immediately excised and placed in ice-cold cardioplegia solution (CPS) composed of (in mmol/l) 280 Glucose, 13.44 KCl, 12.6 NaHCO3, 34 Mannitol. […] Perfusion and superfusion temperatures were continuously monitored and kept at 36±1° C. by using two sets of glass heating coils and heated-refrigerated circulators. […]
(§2) After a 20-30 min stabilization period during which the perfusion flow and ECG was monitored, the excitation-contraction uncoupler diacetyl-monoxime (DAM) was added to the perfusate (15 mmol/l) to stop contractions of cardiac tissue. […]

rat heart cardiac tissue [2] = test: Optical action potential recording in Langendorff-perfused rat heart (Tyrode's solution); conditions: mean ± SD
Procedure: as §1, §2

[3] = system: guinea pig heart cardiac tissue; test: Optical action potential recording in Langendorff-perfused guinea pig heart (Tyrode's solution); conditions: mean ± SD
Procedure: as §1, §2

[4] = system: pig cardiac tissue (right free ventricular wall); test: Optical action potential recording in Tyrode-perfused pig right ventricular wall preparation; conditions: for ΔF/F (relative fluorescence, maximal fluorescence efficacy): pig tissue, Tyrode-perfused, epifluorescence; for ΔF/F (relative fluorescence): pig, transillumination mode, thick cardiac tissue ~10 mm
Procedure: The dye testing experiments were performed on typical model animals: mice (n=6), rat (n=11), guinea pig (n=6), pig (n=13). All experimental protocols conformed to the Guide for the Care and Use of Laboratory Animals and were approved by the Committee for the Humane Use of Animal of the SUNY Upstate Medical University. Mice (C57BL/6, 20-25 g) were injected with ketamine (200 mg/kg IP), rats (Sprague Dawley, 300-400 g female) and guinea pigs were injected with heparin (550 U/100 g), and euthanized by sodium phentobarbital (1 ml/100 g for rats and 0.75 ml/100 g for guinea pigs). The heart was then immediately excised and placed in ice-cold cardioplegia solution (CPS) composed of (in mmol/l) 280 Glucose, 13.44 KCl, 12.6 NaHCO3, 34 Mannitol. After removal of extraneous tissues, the aorta was cannulated and Langendorff perfusion was started with a standard oxygenated Tyrode's solution (composed of (in mmol/l) 130 NaCl, 24 NaHCO3, 1.2 NaH2PO4, 1.0 MgCl2, 5.6 Glucose, 4.0 KCl, 1.8 CaCl2; buffered to a pH of 7.4) at 80 mm Hg and 36° C. Young pigs (15-20 kg,) were heparinized (500 IU, IV) and subsequently anesthetized with sodium phentobarbital (35 mg/kg IV). The heart was rapidly removed and Langendorff-perfused with cold (4° C.) CPS. The right free ventricular wall was quickly excised, and the right coronary artery was cannulated. Non-perfused tissue was removed, leaving a preparation of typically 5×5 cm and a thickness of 8 mm. The preparation was stretched on a plastic frame and perfused with a standard oxygenated Tyrode's solution at 80 mm Hg and 36° C. Whole cannulated heart (mouse, rat or guinea pig) or stretched pig tissue was put into special transparent chamber and superfused with the same solution at a rate of 30-40 ml/min. Perfusion and superfusion temperatures were continuously monitored and kept at 36±1° C. by using two sets of glass heating coils and heated-refrigerated circulators. Electrodes were sutured to whole hearts or inserted into pig tissue to monitor ECG. All preparations were continuously paced at the frequency 6.7 Hz, 5 Hz, 3.3 Hz and 2 Hz for mouse, rat, guinea pig, and pig, respectively.
After a 20-30 min stabilization period during which the perfusion flow and ECG was monitored, the excitation-contraction uncoupler diacetyl-monoxime (DAM) was added to the perfusate (15 mmol/l) to stop contractions of cardiac tissue. After a 20 minute equilibration, the preparation was stained by injecting voltage-sensitive dye solution into the perfusion flow (a bolus injection near cannula).
Solid dyes were dissolved in DMSO to make 10-50 mM stock solution that was kept frozen. […]

blood-perfused pig heart = test: Optical mapping of blood-perfused Langendorff pig heart; conditions: for ΔF/F (relative fluorescence): blood perfusion
Procedure: Blood-perfused Langendorff preparation of pig heart was implemented. Briefly, approximately 1.5 liters of modified Tyrode's solution (37° C., composition in mmol/L: Na^+, 157; K^+, 4.7; Ca^2+, 1.5; Mg^2+, 0.7, H2PO4^−0.5, Cl^−137.6, HCO3^−28.0, glucose 11.0, dextran 4% and insulin 10 U) was infused in an external jugular vein, and blood-Tyrode's mixture was collected at equal rate from a carotid artery. The heart was perfused with blood-Tyrode mixture in a Langendorff apparatus. The blood-Tyrode mixture will be oxygenated (CO2 5%/02 95%), heated (37° C.) and filtered using a Liliput hollow fiber oxygenator (COBE Cardiovascular, Arvada, Co). Collector tubes were inserted into the right and left ventricles to collect all the blood coming out of the coronary sinus and Thebesian veins. Thereafter, the heart was “sealed” to ensure that all the outflow of perfused blood is collected for recirculation. The heart was placed in a warm bath with heated water-jacketed transparent glass wall and was superfused with an oxygenated, heated Tyrode solution. After a 20-30 min stabilization verified by a vigorous contraction and normal sinus rhythm, the excitation-contraction uncoupler diacetyl-monoxime (DAM) was added to the perfusate (15 mmol/l) to stop contractions. ECG was monitored throughout the experiment to ensure stable capture of the ventricles by the pacing electrode. […]
Blood-perfused pig heart imaging was done in a similar way. Briefly, the dye was excited with a 400-watt tungsten-halogen lamp (excitation filter, 650+/−20 nm) and the fluorescence was collected above 715 nm using a Computar objective lens (HG1208FCS_HSP, F0.8, focal length 12 mm,) and externally cooled CCD camera (Dalsa CA-D1-0128T, Ontario, Canada) at the frame rate of 400-800 fps and 12-bit resolution.
The acquired images were offline processed to improve their quality. The background autofluorescence (endogenous fluorescence recorded under the same conditions before dye injection) was subtracted from each frame to obtain the voltage-dependent optical signal. To allow temporal alignment and subsequent averaging of successive paced action potentials, the trigger for the pacing stimulus was recorded as a single pixel in the movie frames. […] Dye loading and washout dynamics were assessed from averaged sets of OP recordings (3-5 specimens). To facilitate comparison, fluorescence and OP signals were normalized to their peak values (defined as the difference between maximum and minimum values) in some figures.
For the dye loading dynamics, the time to reach peak values of background fluorescence (membrane voltage independent component of the dye molecules fluorescence), OP, and ΔF/F were determined by simple visual inspection of the dynamic plots. […]

[5] = system: mouse heart cardiac tissue; test: Dye washout dynamics of OP amplitude in mouse heart; conditions: mean ± SD
Procedure: as §1
(§3) The acquired images were offline processed to improve their quality. The background autofluorescence (endogenous fluorescence recorded under the same conditions before dye injection) was subtracted from each frame to obtain the voltage-dependent optical signal. To allow temporal alignment and subsequent averaging of successive paced action potentials, the trigger for the pacing stimulus was recorded as a single pixel in the movie frames. […]

rat heart cardiac tissue [6] = test: Dye washout dynamics of OP amplitude in rat heart; conditions: mean ± SD
Procedure: as §1, §3

[7] = system: guinea pig heart cardiac tissue; test: Dye washout dynamics of OP amplitude in guinea pig heart; conditions: mean ± SD
Procedure: as §1, §3

pig cardiac tissue = test: Dye washout dynamics of OP amplitude in pig cardiac tissue; conditions: mean ± SD
Procedure: as §1, §3

[8] = Absorbance spectra in ethanol; format: physicochemical
Procedure: Absorbance spectra were measured in ethanol (panel A), and a model membrane made of multilamellar lipid vesicles (MLV) composed of egg phosphatidyl choline (panel B). The absorbance spectra reveal single maxima that represent a high level of the dye purity and absence of different configurational isomers. The absorption maxima for JPW6003 in ethanol occurred at 603 nm. For the dye JPW 6033 all absorption maxima are shifted 20-40 nm to shorter wavelengths, but absorbance is 2-3 times higher. Though the long wavelength absorbance peaks range from 561 nm to 603 nm in ethanol, and 526 nm to 539 nm in MLV, in practical applications both dyes can be efficiently excited over a much broader range (500-700 nm), allowing one to optimize excitation for the dye in different tissues, including blood perfused tissue.

[9] = Voltage-dependent fluorescence response in voltage-clamped hemispherical lipid bilayer (HLB) model membrane
Procedure: Voltage-dependent spectra in model membranes were measured by a voltage-clamped hemispherical lipid bilayer (HLB) apparatus modified for near infrared fluorescence detection. In this experiment, light from a tungsten lamp is sent through a monochromator and then focused onto the bottom of the HLB, stained with dye from the external aqueous bathing solution. The monochromator is then scanned over the wavelength range of interest while a train of ±50 mV voltage steps are applied to the membrane at a frequency of 40 Hz and the modulation of the detected light signal is measured with a lockin amplifier. The transmitted light signal is collected at 180° from the incident light. Fluorescence is collected at 90° via fiber optic light guide through cutoff filters at 715 nm.

various cardiac tissues = test: Dye performance in various cardiac tissues compared with di-4-ANEPPS; conditions: in any of the tested species
Procedure: as §1, with “Mannitol. After removal of extraneous tissues, the aorta was cannulated and Langendorff perfusion was started with a standard oxygenated Tyrode's solution (composed of (in mmol/l) 130 NaCl, 24 NaHCO3, 1.2 NaH2PO4, 1.0 MgCl2, 5.6 Glucose, 4.0 KCl, 1.8 CaCl2; buffered to a pH of 7.4) at 80 mm Hg and 36° C. Young pigs (15-20 kg,) were heparinized (500 IU, IV) and subsequently anesthetized with sodium phentobarbital (35 mg/kg IV).” for “Mannitol.”

| Compound | ΔF/F (relative fluorescence, maximal fluorescence efficacy) [1] | ΔF/F (relative fluorescence, maximal fluorescence efficacy) (rat heart cardiac tissue [2]) | ΔF/F (relative fluorescence, maximal fluorescence efficacy) [3] | ΔF/F (relative fluorescence, maximal fluorescence efficacy) [4] | ΔF/F (relative fluorescence) [4] | time of slow increase in total fluorescence and OP (dye loading) (blood-perfused pig heart; dye injected during recirculated-blood-perfusion) | ΔF/F (relative fluorescence) (blood-perfused pig heart; pig, Tyrode's-perfused loading) | ΔF/F (relative fluorescence) (blood-perfused pig heart; pig, blood-perfused loading (dye injected into blood flow)) | steady-state level of deltaF/F during blood perfusion (blood-perfused pig heart; pig, regardless of loading in Tyrode's or directly into blood flow) | 50% washout time of OP amplitude [5] | 50% washout time of OP amplitude (rat heart cardiac tissue [6]) | 50% washout time of OP amplitude [7] | 50% washout time of OP amplitude (pig cardiac tissue) | absorption maxima (excitation wavelength) [8] | delta F/F (relative fluorescence) in a model membrane [9] | OP amplitude higher than that of di-4-ANEPPS (various cardiac tissues) |
| --- | --- | --- | --- | --- | --- | --- | --- | --- | --- | --- | --- | --- | --- | --- | --- | --- |
| CCCCN(CCCC)c1ccc2cc(/C=C/C=C/c3cc[n+](CCC[N+](C)(C)C)c4ccccc34)ccc2c1.[Br-].[Br-] [JPW6003, Di-4-ANBDQPQ] | 9.1 ± 1.4% | 11.1 ± 1.6% | 11.3 ± 1.0% | 18.7% and 18.7 ± 1.1% | approximately 20% | ~1 h | 12% | 5.5 ± 1.5% | ~5% | 1.4 ± 0.2 h | 2.50 ± 0.28 h | 2.80 ± 0.31 h | 3.33 ± 0.31 h | 603 nm |  |  |
| CCCCN(CCCC)c1ccc2cc(/C=C/c3cc[n+](CCCS(=O)(=O)[O-])cc3)ccc2c1 [di-4-ANEPPS] |  |  |  |  |  |  |  |  |  |  |  |  |  |  | 9% |  |
| Di-4-ANBDQBS [JPW6033] | 10 ± 1.5% | 14 ± 1.5% | 12.5 ± 1.4% | 15 ± 1.0% | 14 ± 1.1% |  |  |  |  | 1.0 ± 0.1 h | 1.8 ± 0.2 h | 2.0 ± 0.2 h | 2.50 ± 0.28 h |  |  | 50-100% |
